Experimental data as given in patent US20250051344A1, “BIFUNCTIONAL SELECTIVE DEGRADERS OF SMARCA2 AND THERAPEUTIC USES THEREOF” (Nurix Therapeutics, Inc., priority 2023, published 2025).

Assays:
[1] = target: T1, SMARCA4 (Homo sapiens, UniProt P51532); test: Cellular degradation assay, SMARCA4 (Table 1); format: cell-based
T1 construct: endogenous in cells

[2] = target: T2, SMARCA2 (Homo sapiens, UniProt P51531); test: SMARCA2 Cellular Degradation Assay (Western blot analysis on Jess platform); format: cell-based; conditions: for DC50 / Dmax: cellular degradation; for Fold Selectivity SMARCA4/2: ratio DC50 SMARCA4 / DC50 SMARCA2
T2 construct: endogenous in cells
T2 sequence (P51531 whole entry, species assumed): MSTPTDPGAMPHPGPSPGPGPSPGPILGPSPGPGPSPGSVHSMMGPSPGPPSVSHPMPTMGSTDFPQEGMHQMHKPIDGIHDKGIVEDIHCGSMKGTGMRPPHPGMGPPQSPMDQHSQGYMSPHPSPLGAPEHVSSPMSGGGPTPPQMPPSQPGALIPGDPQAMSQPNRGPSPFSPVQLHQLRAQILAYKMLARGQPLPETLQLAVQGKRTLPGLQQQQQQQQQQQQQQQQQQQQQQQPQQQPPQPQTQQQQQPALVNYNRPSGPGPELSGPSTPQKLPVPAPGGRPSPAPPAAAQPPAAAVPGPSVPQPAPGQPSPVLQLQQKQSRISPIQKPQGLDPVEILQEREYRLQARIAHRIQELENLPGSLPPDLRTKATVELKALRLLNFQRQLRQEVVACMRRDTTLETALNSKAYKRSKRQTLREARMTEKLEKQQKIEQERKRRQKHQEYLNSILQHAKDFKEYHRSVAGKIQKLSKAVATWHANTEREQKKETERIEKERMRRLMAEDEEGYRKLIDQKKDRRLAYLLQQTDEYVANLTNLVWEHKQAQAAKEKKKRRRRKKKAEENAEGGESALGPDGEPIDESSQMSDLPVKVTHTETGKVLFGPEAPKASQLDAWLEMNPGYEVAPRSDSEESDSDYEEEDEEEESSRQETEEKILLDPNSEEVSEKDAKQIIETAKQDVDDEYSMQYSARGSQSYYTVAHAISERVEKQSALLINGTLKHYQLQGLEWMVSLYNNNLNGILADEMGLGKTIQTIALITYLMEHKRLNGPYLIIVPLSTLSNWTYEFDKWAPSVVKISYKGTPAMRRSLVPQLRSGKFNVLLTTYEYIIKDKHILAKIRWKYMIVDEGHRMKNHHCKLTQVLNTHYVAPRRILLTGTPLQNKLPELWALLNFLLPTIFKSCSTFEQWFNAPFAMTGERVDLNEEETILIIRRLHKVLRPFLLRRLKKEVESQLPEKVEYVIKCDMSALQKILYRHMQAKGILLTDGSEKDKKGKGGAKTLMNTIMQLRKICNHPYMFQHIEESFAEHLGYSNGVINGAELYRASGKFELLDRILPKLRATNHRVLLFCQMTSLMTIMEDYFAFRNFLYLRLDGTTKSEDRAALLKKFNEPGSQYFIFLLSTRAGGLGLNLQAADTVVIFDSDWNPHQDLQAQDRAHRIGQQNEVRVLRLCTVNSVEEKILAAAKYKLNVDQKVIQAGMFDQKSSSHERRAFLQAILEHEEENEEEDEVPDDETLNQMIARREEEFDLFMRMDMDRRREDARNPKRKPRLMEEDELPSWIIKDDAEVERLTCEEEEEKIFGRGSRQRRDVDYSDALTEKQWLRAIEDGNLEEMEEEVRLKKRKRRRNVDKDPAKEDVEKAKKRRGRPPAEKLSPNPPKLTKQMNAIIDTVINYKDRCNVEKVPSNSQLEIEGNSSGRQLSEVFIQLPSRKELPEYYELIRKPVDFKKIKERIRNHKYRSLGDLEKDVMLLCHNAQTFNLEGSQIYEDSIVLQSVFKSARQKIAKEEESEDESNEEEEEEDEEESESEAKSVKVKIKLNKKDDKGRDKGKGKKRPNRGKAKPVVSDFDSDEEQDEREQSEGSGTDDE
Outline: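 Cells recovered from tumors are lysed, cleared at 20,817×g, and protein is quantified by BCA. Equal protein (5 μg) is then probed on Jess for SMARCA2 and actin, and normalized SMARCA2 signal is reported against vehicle.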

T1 sequence (P51532 whole entry, species assumed): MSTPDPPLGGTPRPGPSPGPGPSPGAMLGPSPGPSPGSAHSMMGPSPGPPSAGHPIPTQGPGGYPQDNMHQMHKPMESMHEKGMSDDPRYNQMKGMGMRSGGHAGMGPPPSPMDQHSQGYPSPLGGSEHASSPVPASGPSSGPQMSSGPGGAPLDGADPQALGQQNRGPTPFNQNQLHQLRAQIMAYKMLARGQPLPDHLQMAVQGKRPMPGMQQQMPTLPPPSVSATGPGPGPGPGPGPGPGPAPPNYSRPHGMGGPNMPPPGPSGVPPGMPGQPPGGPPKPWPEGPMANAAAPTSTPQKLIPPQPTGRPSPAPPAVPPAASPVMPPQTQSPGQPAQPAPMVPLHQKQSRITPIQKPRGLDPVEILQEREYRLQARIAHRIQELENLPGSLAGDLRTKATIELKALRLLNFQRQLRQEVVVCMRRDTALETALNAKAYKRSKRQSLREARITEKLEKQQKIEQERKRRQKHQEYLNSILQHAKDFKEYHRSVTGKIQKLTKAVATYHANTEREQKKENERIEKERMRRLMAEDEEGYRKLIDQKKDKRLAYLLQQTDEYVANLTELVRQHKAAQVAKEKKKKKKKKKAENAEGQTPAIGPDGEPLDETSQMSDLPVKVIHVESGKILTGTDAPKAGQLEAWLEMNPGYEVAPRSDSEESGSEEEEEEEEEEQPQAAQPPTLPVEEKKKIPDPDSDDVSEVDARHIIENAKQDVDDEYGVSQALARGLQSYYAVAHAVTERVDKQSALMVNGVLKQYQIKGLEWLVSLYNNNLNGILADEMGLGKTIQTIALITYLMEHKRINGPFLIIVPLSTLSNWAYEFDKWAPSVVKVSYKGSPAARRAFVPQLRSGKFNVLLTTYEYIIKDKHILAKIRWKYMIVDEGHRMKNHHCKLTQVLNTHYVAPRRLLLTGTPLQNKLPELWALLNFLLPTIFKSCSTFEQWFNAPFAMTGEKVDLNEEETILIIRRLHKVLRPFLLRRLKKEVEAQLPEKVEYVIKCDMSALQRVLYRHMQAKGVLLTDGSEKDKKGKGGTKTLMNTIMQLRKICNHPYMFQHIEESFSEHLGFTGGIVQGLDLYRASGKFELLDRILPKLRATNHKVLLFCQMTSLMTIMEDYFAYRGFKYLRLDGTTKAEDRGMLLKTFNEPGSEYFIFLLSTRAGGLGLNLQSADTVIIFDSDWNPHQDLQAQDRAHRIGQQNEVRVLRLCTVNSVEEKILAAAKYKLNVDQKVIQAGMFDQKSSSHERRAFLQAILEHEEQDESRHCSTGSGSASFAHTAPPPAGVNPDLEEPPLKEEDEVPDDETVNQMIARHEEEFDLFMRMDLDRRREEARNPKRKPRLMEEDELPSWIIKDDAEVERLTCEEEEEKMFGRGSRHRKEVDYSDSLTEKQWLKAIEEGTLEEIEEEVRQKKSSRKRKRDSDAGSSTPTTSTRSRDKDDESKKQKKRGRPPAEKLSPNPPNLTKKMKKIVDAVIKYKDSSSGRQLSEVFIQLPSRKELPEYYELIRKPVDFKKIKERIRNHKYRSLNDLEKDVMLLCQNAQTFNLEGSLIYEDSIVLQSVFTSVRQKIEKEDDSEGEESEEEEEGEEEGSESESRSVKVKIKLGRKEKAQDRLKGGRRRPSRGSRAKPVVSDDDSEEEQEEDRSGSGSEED

| DC50 [1] | Dmax [1] | DC50 [2] | Dmax [2] | Fold Selectivity SMARCA4/2 [2] | Structure (SMILES) |
| --- | --- | --- | --- | --- | --- |
| 88.6 nM | 55.4% | 3.33 nM | 89.2% | 27 | Cc1ccnn1C1(C(=O)N(C)C2CCN(CCC3CCN(c4ccc(C5CCC(=O)NC5=O)c(F)c4)CC3)CC2)CCN(c2cnnc(-c3ccccc3O)c2)CC1 (racemic) [Example 65, rac-N-{1-[2-(1-{4-[(3R)-2,6-dioxopiperidin-3-yl]-3-fluorophenyl}piperidin-4-yl)ethyl]piperidin-4-yl}-1-[6-(2-hydroxyphenyl)pyridazin-4-yl]-n-methyl-4-(5-methyl-1H-pyrazol-1-yl)piperidine-4-carboxamide] |
|  | 20.7% | 10.6 nM | 73.7% | 947 | Cn1ccc(OC2(C(=O)N3CC4(CN(CCC5CCN(c6ccc(C7CCC(=O)NC7=O)c(F)c6)CC5)C4)C3)CCN(c3cnnc(-c4ccccc4O)c3)CC2)n1 (racemic) [Example 66, rac-3-(2-fluoro-4-(4-(2-(6-(1-(6-(2-hydroxyphenyl)pyridazin-4-yl)-4-((1-methyl-1H-pyrazol-3-yl)oxy)piperidine-4-carbonyl)-2,6-diazaspiro[3.3]heptan-2-yl)ethyl)piperidin-1-yl)phenyl)piperidine-2,6-dione] |
| 20.4 nM | 72.9% | 0.4 nM | 96.2% | 51 | Cn1ccc(OC2(C(=O)N3CC4(CN(CCC5CCN(c6cccc7c6n(C)c(=O)n7C6CCC(=O)NC6=O)CC5)C4)C3)CCN(c3cnnc(-c4ccccc4O)c3)CC2)n1 (racemic) [Example 67, rac-3-(4-(4-(2-(6-(1-(6-(2-hydroxyphenyl)pyridazin-4-yl)-4-((1-methyl-1H-pyrazol-3-yl)oxy)piperidine-4-carbonyl)-2,6-diazaspiro[3.3]heptan-2-yl)ethyl)piperidin-1-yl)-3-methyl-2-oxo-2,3-dihydro-1h-benzo[d]imidazol-1-yl)piperidine-2,6-dione] |
| 19.2 nM | 66.9% | 0.57 nM | 93.2% | 34 | COC1(C(=O)N(C)C2CCN(CCC3CCN(c4cccc5c4n(C)c(=O)n5C4CCC(=O)NC4=O)CC3)CC2)CCN(c2cnnc(-c3ccccc3O)c2)CC1 (racemic) [Example 68, rac-N-(1-(2-(1-(1-(2,6-dioxopiperidin-3-yl)-3-methyl-2-oxo-2,3-dihydro-1H-benzo[d]imidazol-4-yl)piperidin-4-yl)ethyl)piperidin-4-yl)-1-(6-(2-hydroxyphenyl)pyridazin-4-yl)-4-methoxy-n-methylpiperidine-4-carboxamide] |
|  | 44.1% | 6.23 nM | 85.3% | 1605 | CN(C(=O)C1(c2ccccc2)CCN(c2cnnc(-c3ccccc3O)c2)CC1)C1CCN(CCC2CCN(c3ccc(C4CCC(=O)NC4=O)cn3)CC2)CC1 (racemic) [Example 69, rac-N-(1-(2-(1-(5-(2,6-dioxopiperidin-3-yl)pyridin-2-yl)piperidin-4-yl)ethyl)piperidin-4-yl)-1-(6-(2-hydroxyphenyl)pyridazin-4-yl)-N-methyl-4-phenylpiperidine-4-carboxamide] |
|  | 35.1% | 8.6 nM | 81.4% | 1163 | CN(C(=O)C1(OC2CC2)CCN(c2cnnc(-c3ccccc3O)c2)CC1)C1CCN(CCC2CCN(c3ccc([C@H]4CCC(=O)NC4=O)c(F)c3)CC2)CC1 (racemic) [Example 70, rac-(r)-4-cyclopropoxy-n-(1-(2-(1-(4-(2,6-dioxopiperidin-3-yl)-3-fluorophenyl)piperidin-4-yl)ethyl)piperidin-4-yl)-1-(6-(2-hydroxyphenyl)pyridazin-4-yl)-n-methylpiperidine-4-carboxamide] |
|  | 32.2% | 8.07 nM | 81.6% | 1239 | COC1(C(=O)N(C)C2CCN(CCC3CCN(c4ccc(C5CCC(=O)NC5=O)c(F)c4)CC3)CC2)CCN(c2cnnc(-c3ccccc3O)c2)CC1 (racemic) [Example 71, rac-N-(1-(2-(1-(4-(2,6-dioxopiperidin-3-yl)-3-fluorophenyl)piperidin-4-yl)ethyl)piperidin-4-yl)-1-(6-(2-hydroxyphenyl)pyridazin-4-yl)-4-methoxy-n-methylpiperidine-4-carboxamide] |
| 25.9 nM | 75.4% | 0.61 nM | 95.8% | 42 | Cn1c(=O)n([C@H]2CCC(=O)NC2=O)c2cccc(N3CCC(C(=O)N4C[C@@H]5[C@H](C4)[C@H]5C(=O)NCC4(c5ccccc5)CCN(c5cnnc(-c6ccccc6O)c5)CC4)CC3)c21 (racemic) [Example 72, (1r,5s,6r)-3-(1-(1-((rs)-2,6-dioxopiperidin-3-yl)-3-methyl-2-oxo-2,3-dihydro-1h-benzo[d]imidazol-4-yl)piperidine-4-carbonyl)-n-((1-(6-(2-hydroxyphenyl)pyridazin-4-yl)-4-phenylpiperidin-4-yl)methyl)-3-azabicyclo[3.1.0]hexane-6-carboxamide] |
|  | 21% | 11 nM | 79.8% | 910 | O=C1CC[C@@H](c2ccc(C3CCN(CC(=O)N4C[C@@H]5[C@H](C4)[C@H]5C(=O)NCC4(c5ccccc5)CCN(c5cnnc(-c6ccccc6O)c5)CC4)CC3)cc2)C(=O)N1 (racemic) [Example 73, (1R,5S,6S)-3-[2-(4-{4-[(3RS)-2,6-dioxopiperidin-3-yl]phenyl}piperidin-1-yl)acetyl]-N-({1-[6-(2-hydroxyphenyl)pyridazin-4-yl]-4-phenylpiperidin-4-yl}methyl)-3-azabicyclo[3.1.0]hexane-6-carboxamide] |
|  | 35.3% | 2.18 nM | 90% | 4587 | CN(C(=O)C1(c2ccncc2)CCN(c2cnnc(-c3ccccc3O)c2)CC1)C1CCN(CCC2CCN(c3ccc(C4CCC(=O)NC4=O)c(F)c3)CC2)CC1 (racemic) [Example 75, rac-N-{1-[2-(1-{4-[(3R)-2,6-dioxopiperidin-3-yl]-3-fluorophenyl}piperidin-4-yl)ethyl]piperidin-4-yl}-1-[6-(2-hydroxyphenyl)pyridazin-4-yl]-n-methyl-4-(pyridin-4-yl)piperidine-4-carboxamide] |
|  | 24.7% | 9.53 nM | 83.5% | 1049 | C[C@H]1C[C@H](NC(=O)C2(c3ccccc3)CCN(c3cnnc(-c4ccccc4O)c3)CC2)CCN1C(=O)CN1CCC(c2ccc([C@H]3CCC(=O)NC3=O)cc2)CC1 (racemic) [Example 76, n-((2s,4r)-1-(2-(4-(4-((rs)-2,6-dioxopiperidin-3-yl)phenyl)piperidin-1-yl)acetyl)-2-methylpiperidin-4-yl)-1-(6-(2-hydroxyphenyl)pyridazin-4-yl)-4-phenylpiperidine-4-carboxamide] |
|  | 44.2% | 4.12 nM | 87% | 2427 | CN(C(=O)C1(c2cc3ccccn3n2)CCN(c2cnnc(-c3ccccc3O)c2)CC1)C1CCN(CCC2CCN(c3ccc(C4CCC(=O)NC4=O)cc3)CC2)CC1 (racemic) [Example 77, rac-N-{1-[2-(1-{4-[(3R)-2,6-dioxopiperidin-3-yl]phenyl}piperidin-4-yl)ethyl]piperidin-4-yl}-1-[6-(2-hydroxyphenyl)pyridazin-4-yl]-N-methyl-4-{pyrazolo[1,5-a]pyridin-2-yl}piperidine-4-carboxamide] |
